# Experimental data from patent publication US5459256A, “Lipophilic, aminohydrolase-activated prodrugs” (priority 1991, dated 1995).
# Entries after “also recorded” stand apart in the source; their conditions may differ. Where two headings read alike, the source gives them in different places.
# Tests used:
# [1] = system: HIV-1/IIIB (CD4^+ ATH8 cells); assay: HIV cytopathic effect inhibition assay in ATH8 cells (% protection); format: cell-based; settings: for anti-HIV activity (in words): no additive
# Method: (§1) HIV Cytopathic Effect Inhibition Assay.
# (§2) The HIV cytopathic effect inhibition assay was performed as previously described. (Mitsuya, H. & Broder, S. Proc. Nat. Acad. Sci. USA 1986, 83, 1911) Briefly, 200,000 target CD4^+ ATH8 cells were exposed to cell-free HIV-1/IIIB at a dose of 43 (or 1087 for compound 1g) TCID50 (50% tissue culture infectious dose) for 1 h, resuspended in 2 ml of fresh culture media containing interleukin 2, and cultured at 37° C. with or without test compounds in 5% CO2 -containing humidified air. On day 8 in culture, the viable cells were counted by using the dye exclusion method. All compounds, including inactives, were evaluated a minimum of two times in separate experiments. Data reported in Table II are from representative tests. The % protection against the virus was determined by the following formula: 100 times [(the number of viable cells exposed to HIV-1 and cultured in the presence of the compound minus the number of viable cells exposed to HIV-1 and cultured in the absence of compound) divided by (the number of viable cells cultured alone minus the number of viable cells exposed to HIV-1 and cultured in the absence of the compound)]. The % toxicity of a compound on the target cells was determined by the following formula: 100 times [1 minus (the number of total viable cells cultured in the presence of the compound divided by the number of total viable cells cultured alone)]. Calculated percentages equal to or less than zero are expressed as 0%.
# ^a ATH8 cells were exposed to HIV1/IIIB per cell for 1 hr and
# cultured in the presence of various concentrations of each compound. On
# day 8, the total viable cells were counted. Orders of numbers in the
# column for concentrations correspond to the orders of numbers in other
# [2] = Toxicity on ATH8 target cells (% toxicity, dye exclusion); format: cell-based; settings: human, ath8 cells
# Method: as §1
# as §2, with “(Mitsuya, H. & Broder, S. Proc. Nat. Acad. Sci. USA 1986, 83, 1911) Briefly, 200,000 target CD4^+ ATH8 cells were exposed to cell-free HIV-1/IIIB at a dose of 43 (or 1087 for compound 1g) TCID50 (50% tissue culture infectious dose) for 1 h, resuspended in 2 ml of fresh culture media containing interleukin 2, and cultured at 37° C. with or without test compounds in 5% CO2 -containing humidified air.” left out
# [3] = physchem
# Method: Measurement of Octanol-Water Partition Coefficients.
# n-Octanol-water partition coefficients (P) were determined by a microscale shake-flask procedure, (Ford, H. et al Abstracts of Papers, 200th National Meeting of the American Chemical Society, Washington, D.C.; American Chemical Society: Washington, D.C., 1990; CARB 13) which was modification of an earlier method (Nahum, A. & Horvath, C. J. Chromatogr. 1980, 192, 315). A 20 μL aliquot of a 0.5 mg/mL DMSO solution of the dideoxynucleoside was dissolved in 1.0 mL of octanol-saturated, pH 7.0, 0.01M potassium phosphate buffer. This was mixed thoroughly with 1.0 ml of buffer-saturated n-octanol in a 2-mL Mixxor apparatus at 24°-26° C. and then allowed to stand for 15 min. The phases were separated, centrifuged at 600×g for 5 min, and the relative concentration of sample in each phase determined by HPLC analysis of a 50 μl aliquot. The partition coefficient was calculated by dividing the absolute area of the appropriate integrated peak from the octanol phase by that of the buffer phase (Table I).
# Octanol/pH 7.0 buffer partition coefficients were determined using a newly developed microscale method. […] The addition of a methyl group normally increases the log P value of a compound by about 0.5.
# [4] = target: T1, adenosine deaminase (adenosine aminohydrolase, EC 3.5.4.4) (Bos taurus, UniProt P56658); assay: Enzymatic deamination by adenosine deaminase (HPLC)
# T1 sequence (P56658 1-363): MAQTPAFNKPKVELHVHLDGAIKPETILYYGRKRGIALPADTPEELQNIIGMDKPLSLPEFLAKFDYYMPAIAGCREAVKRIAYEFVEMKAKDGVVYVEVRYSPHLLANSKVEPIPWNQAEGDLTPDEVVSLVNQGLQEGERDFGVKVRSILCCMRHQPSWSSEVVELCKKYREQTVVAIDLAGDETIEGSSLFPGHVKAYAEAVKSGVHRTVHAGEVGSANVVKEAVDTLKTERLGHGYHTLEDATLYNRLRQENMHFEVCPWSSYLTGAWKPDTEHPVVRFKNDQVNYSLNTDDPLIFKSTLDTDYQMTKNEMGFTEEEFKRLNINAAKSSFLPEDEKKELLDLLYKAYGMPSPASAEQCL
# Method: FIG. 1. Deamination of dideoxyadenosine analogues by adenosine deaminase. Hydrolysis kinetics and 2'-F-dd-ara-I formation during the incubation of 50 μM N^6 -CH3 -2'-F-dd-ara-A (1f) with 0.7 units/mL of adenosine deaminase at 37° C. A unit of adenosine deaminase is the amount of enzyme which hydrolyzes a standard substrate (e.g., adenosine) at the rate of 1.0 μmole/min at 25° C. and pH 7.5. […] Insert: Adenosine deaminase hydrolysis kinetics for 50 μM ddA and 2'-F-dd-ara-A. The hydrolysis curve for ddA has been extrapolated from kinetics obtained with 0.07 units/mL of adenosine deaminase under identical conditions.
# A 50 μl aliquot of a 10 mg/ml suspension of adenosine deaminase (adenosine aminohydrolase, EC 3.5.4.4) from calf intestinal mucosa was centrifuged at 600×g for 3 min. The residue remaining after removal of the (NH4)2 SO4 supernatant was dissolved in 0.5 ml pH 7.4 tris(hydroxymethyl)-aminomethane (Tris) buffer to give an enzyme solution of 1 mg/ml (274 units/ml). […] A pH 7.4 buffer was prepared by adjusting 0.01M Tris to pH 7.4 with 0.5N HCl, The 1.0 HCl , HPLC-grade acetonitrile, monobasic potassium phosphate, sodium hydroxide and ultrapure Tris were all commercially available and were used without further purification.
# Enzymatic Deamination of Adenosine Analogues. […] A 50 μL aliquot of substrate solution was diluted with 0.95 ml 0.01M Tris buffer in a 1.5-mL Eppendorf tube and equilibrated at 37° C. in a Dubnoff metabolic shaking incubator. Reaction was initiated by addition of 2.5 μL of adenosine deaminase solution (0.7 unit). At specified time intervals, a 50 μL aliquot of the reaction mixture was withdrawn and quenched by mixing with 0.45 mL cold 2 μM 2'-deoxycoformycin. This diluted sample was ultrafiltered to remove enzyme in a Centrifree Micropartition unit by centrifugation at 600×g at 4° C. in a high speed refrigerated centrifuge. The decrease in substrate concentration was monitored by HPLC analysis of the resultant ultrafiltrate (see below). The ability of 2'-deoxycoformycin to inhibit deamination under the above conditions was evaluated by adding 2 μL of 1.0 mM inhibitor to diluted substrate solutions at the time of equilibration. Reaction, sampling and analysis were carried out as above. […] Initial hydrolysis rates for each substrate concentration were measured through linear least-squares curve fitting of the concentration versus time data for reaction of the first 10% of substrate. KM and vmax values for each substrate were then determined from a graphical lineweaver-Burke plot of these initial rates (FIG. 1).
# HPLC Analysis of Dideoxypurine Nucleosides.
# Concentrations of dideoxynucleosides were measured by the HPLC analysis of 100 μL aliquots of ultrafiltered samples. A 4.6×250 mm 5-μm Ultrasphere-ODS column, protected by a Waters guard column packed with 37-50 μm Vydac 201SC, was eluted with 10-20% CH3 CN in 0.01M pH 7.0 phosphate buffer at a flow rate of 1.0 mL/min. Dideoxynucleosides and deamination products were detected at the appropriate wavelength of maximum absorption with a Gilson 116 variable wavelength detector. Peak identity was determined from coincidence of retention times with standards and by comparison of on-the-fly UV spectra obtained with a Perkin-Elmer LC-235 diode array detector. Peak areas and peak heights were measured simultaneously on a Spectra-Physics SP4200 computing integrator.
# [5] = system: CD4^+ ATH8 cells; assay: Toxicity on ATH8 target cells (% toxicity, dye exclusion); format: cell-based; settings: for % Toxicity: human
# Method: as §1
# as §2, with “(Mitsuya, H. & Broder, S. Proc. Nat. Acad. Sci. USA 1986, 83, 1911) Briefly, 200,000 target CD4^+ ATH8 cells were exposed to cell-free HIV-1/IIIB at a dose of 43 (or 1087 for compound 1g) TCID50 (50% tissue culture infectious dose) for 1 h, resuspended in 2 ml of fresh culture media containing interleukin 2, and cultured at 37° C. with or without test compounds in 5% CO2 -containing humidified air.” left out
# [6] = without dCF, read-out: % Toxicity
# [7] = octanol/ph 7.0 buffer, pH 7, Log P
# [8] = octanol/ph 7.0 buffer, pH 7, octanol/pH 7.0 buffer partition coefficient (P)
# [9] = additive alone, no test compound
smiles,measurement,setting,value
"O=c1[nH]cnc2c1ncn2[C@H]1CC[C@@H](CO)O1 [ddI, dideoxyinosine, reference compound]",inhibition at 20 µM,"[1]; Human immunodeficiency virus 1, IIIB, ATH-8, 192 h, 20 μM, without dCF",100%
same,"cytotoxicity at 192 h, 20 µM",[2]; [6],0%
"Cc1nc2c(N)ncnc2n1[C@@H]1O[C@H](CO)C[C@@H]1F [Compound 1h, 8-Methyl-9-(2',3'-dideoxy-2'-fluoro-β-D-arabinofuranosyl)adenine]",logD,[3]; [7],0.1 ± 0.01
"CNc1nc(C)nc2c1ncn2[C@@H]1O[C@H](CO)C[C@@H]1F [Compound 1e, 2,N^6 -Dimethyl-9-(2',3'-dideoxy-2'-fluoro-β-D-arabinofuranosyl)adenine]",logD,[3]; [7],0.64 ± 0.01
same,anti-HIV activity (in words),[1]; ATH8 cells,the methyl group in the 2-position abolished activity
"Nc1c2ncn([C@@H]3O[C@H](CO)C[C@@H]3F)c2nc[n+]1[O-] [Compound 21, 9-(2',3'-Dideoxy-2'-fluoro-β-D-arabinofuranosyl)adenine-1-oxide]",logD,"[3]; octanol/ph 7.0 buffer, pH 7",-1.38
same,logD,[3]; [8],-1.4
same,anti-HIV activity (in words),[1]; ATH8 cells,abolished activity
same,deamination by ADA (in words),"[4]; 0.7 U/mL ADA, 37° C.",no deamination was observed
"Cc1nc(N)c2ncn([C@@H]3O[C@H](CO)C[C@@H]3F)c2n1 [Compound 1d, 2-methyl-9-(2', 3'-dideoxy-2'-fluoro-β-D-arabinofuranosyl)adenine]",logD,"[3]; octanol/ph 7.0 buffer, pH 7",0.12 ± 0.02
same,anti-HIV activity (in words),[1]; ATH8 cells,the methyl group in the 2-position abolished activity
"OC[C@@H]1C[C@H](F)[C@H](n2cnc3c(Cl)ncnc32)O1 [Compound 1i, 6-Chloro-9-(2',3'-dideoxy-2-fluoro-β-D-arabinofuranosyl)purine]",logD,"[3]; octanol/ph 7.0 buffer, pH 7",0.32 ± 0.02
same,protection to HIV-infected ATH8 cells,"[1]; ATH8 cells, concentration not given",ca. 50%
same,anti-HIV activity in the presence of dCF (in words),"[1]; ATH8 cells, dCF added",protection was either abolished or greatly decreased; also recorded: can have activity abolished
same,anti-HIV activity (in words),[1]; ATH8 cells,"reproducible, albeit unspectacular, activity; also recorded: only moderate anti-HIV activity"
same,"cytotoxicity at 192 h, 50 µM",[2]; % Toxicity,46%
same,"cytotoxicity at 192 h, 100 µM",[2]; % Toxicity,52%
same,% Toxicity,[5]; 11520 min,14%
same,% Toxicity,"[5]; ath8 cells, 192 h, 50 µM",56%
same,% Toxicity,"[5]; ath8 cells, 192 h, 100 µM",72%
same,Measured Relative Rate,"[4]; 50 μM substrate, pH 7.4 and 37° C., ddA = 100",0.06
same,vmax,[4]; pH 7.4 and 37° C.,2.6 × 10^-2 μmol/min/U
same,"hydrolysis by ADA, times slower than ddA","[4]; vs ddA, 50 μM substrate",ca. 1700 times slower
"O=C(Nc1ncnc2c1ncn2[C@@H]1O[C@H](CO)C[C@@H]1F)c1ccccc1 [Compound 1g, N^6-benzoyl-9-(2',3'-dideoxy-2'-fluoro-β-D-arabinofuranosyl)adenine]",Log P,"[3]; octanol/ph 7.0 buffer, pH 7",0.70 ± 0.02
same,logD,[3]; [7],0.73
same,logD,[3]; [8],0.732
same,anti-HIV activity (in words),[1]; ATH8 cells,preservation of modest activity
same,"cytotoxicity at 192 h, 5 µM","[2]; 5 μM, without dCF",2%
same,"cytotoxicity at 192 h, 20 µM",[2]; [6],0%
same,"cytotoxicity at 192 h, 50 µM","[2]; 50 μM, without dCF, read-out: % Toxicity",0%
same,"cytotoxicity at 192 h, 100 µM","[2]; 100 μM, without dCF, read-out: % Toxicity",8%
"OC[C@@H]1C[C@H](F)[C@H](n2cnc3cncnc32)O1 [Compound 1c, 9-(2',3'-dideoxy-2'-fluoro-β-D-arabinofuranosyl)-9-H-purine]",logD,[3]; [7],-0.4 ± 0.01
same,anti-HIV activity (in words),[1]; ATH8 cells,abolished activity
"OC[C@H]1O[C@@H](n2cnc3c2NC=NC[C@H]3O)C[C@@H]1O [dCF, 2'-Deoxycoformycin, reference compound]",protection by additive alone (in words),[1]; [9],did not produce significant toxicity or protection of ATH8 cells against the effects of HIV-1
same,toxicity / viability effect of additive alone (in words),[5]; [9],did not produce significant toxicity
"Cc1cn([C@H]2C[C@H](N=[N+]=[N-])[C@@H](CO)O2)c(=O)[nH]c1=O [AZT, reference compound]",partitioning (in words),[3]; octanol and pH 7.0 buffer,partitions into octanol and pH 7.0 buffer almost equally
same,Log P,"[3]; octanol/pH 7.0 buffer, 24°-26° C., Table I mean ± standard deviation of three determinations",0.05 ± 0.01
